Source: article PMC9456400 (International Journal of Molecular Sciences, 2022)

Tests used:
[1] = system: Huh-7 cells; test: MTT cell viability assay; format: cell-based; conditions: Homo sapiens; Huh-7, MTT
Description: Cell viability effects of lorlatinib were determined using the colorimetric MTT (3-4,5-dimethylthiazol-2-yl-2,5-diphenyl-tetrazolium bromide) reduction assay. Dose–response curves to graded concentrations of lorlatinib were plotted as a percentage of the control cell absorbance, which was obtained from control cells containing the vehicle (DMSO v/v) processed simultaneously. For each treatment, cell viability was evaluated using the following equation: (OD570 of the treated sample/OD570 of the untreated sample) × 100.

[2] = system: Huh-7 cells; test: UHPLC-ESI-QTOF-MS/MS lipidomics; format: cell-based, human
Text: We then questioned whether lorlatinib used at concentrations efficacious against ALK-rearranged lung cancer cells but non-toxic to ALK-negative cells could promote substantial lipidome changes in Huh-7 cells (Figure 1B; Table 1). Accordingly, […], and the lipidome was characterized in a semi-targeted approach using a UHPLC-ESI-QTOF-MS/MS method, in which we matched mass spectra with commercial standards (SPLAH mix), databases such as METLIN-PCDL and Lipid MAPS (accessed on 1 July 2022), as well as corroboration of tentative lipid species upon obtaining their MS/MS spectrum. Representative chromatograms of lipidomic analyses in Huh-7 cells can be found in Figure S1.
Lipid extraction, preparation of external calibration curves, and quality control approaches were carried out as described. Samples (2 μL) were injected directly into a 1290 Infinity UHPLC system coupled with a dual Agilent jet stream ESI source to a 6550 QTOF-MS instrument (Agilent Technologies, Santa Clara, CA, USA). UHPLC-ESI-QTOF-MS conditions, data analysis and indirect quantification of selected lipid species using MassHunter Qualitative Analysis B.07.00 software (Agilent Technologies), and corroboration of the tentative characterization of compound match entities using the Lipid Maps database (www.lipidmaps.org, accessed on 1 July 2022) and targeted MS/MS acquisition on LC-QTOF-MS instrument, have been previously described in detail.
Differentially expressed lipid species from untargeted lipidomic data were analyzed by generating volcano plots indicating statistical significance versus magnitude of fold-change for each lipid species (cutoff of Benjamini–Hochberg corrected p-value < 0.05 and log2 fold-change > 1 or […]).

[3] = Huh-7 cells, SBN 100 µmol/L, lorlatinib 1 µmol/L, median

IC50 [1]: 22 ± 5 µM
Structure (SMILES): C[C@H]1Oc2cc(cnc2N)-c2c(nn(C)c2C#N)CN(C)C(=O)c2ccc(F)cc21 [lorlatinib, (10R)-7-amino-12-fluoro-2,10,16-trimethyl-15-oxo-10,15,16,17-tetrahydro-2H-8,4-(metheno)pyrazolo [4,3-h][2,5,11]-benzoxadiazacyclotetradecine-3-carbonitrile]
Change of lipid species, single agent ([2]; Huh-7, 48 h, lorlatinib 1 μmol/L, silibinin 100 μmol/L): significantly increase several species of ChoE, numerous molecular species of long-chain TG, and several DG, LPC, and PC species
Relative concentration of ChoE 16:0 [2, 3]: 11.335 µmol/mg protein
Relative concentration of ChoE 16:1 [2, 3]: 25.820 µmol/mg protein
Relative concentration of ChoE 17:0 [2, 3]: 2.170 µmol/mg protein
Relative concentration of ChoE 17:1 [2, 3]: 5.670 µmol/mg protein
Relative concentration of ChoE 18:0 [2, 3]: 4.365 µmol/mg protein
Relative concentration of ChoE 18:2 [2, 3]: 33.284 µmol/mg protein
Relative concentration of ChoE 18:3 [2, 3]: 12.818 µmol/mg protein
Relative concentration of ChoE 20:2 [2, 3]: 6.459 µmol/mg protein
Relative concentration of ChoE 20:3 [2, 3]: 42.167 µmol/mg protein
Relative concentration of ChoE 20:4 [2, 3]: 107.967 µmol/mg protein
Relative concentration of ChoE 20:5 [2, 3]: 68.788 µmol/mg protein
Relative concentration of ChoE 22:4 [2, 3]: 27.538 µmol/mg protein
Relative concentration of ChoE 22:5 [2, 3]: 59.058 µmol/mg protein
Relative concentration of DG 34:1 [2, 3]: 16.654 µmol/mg protein
Relative concentration of DG 34:2 [2, 3]: 17.722 µmol/mg protein
Relative concentration of DG 34:3 [2, 3]: 2.474 µmol/mg protein
Relative concentration of DG 36:0 [2, 3]: 2.250 µmol/mg protein
Relative concentration of DG 36:1 [2, 3]: 8.885 µmol/mg protein
Relative concentration of DG 36:2 [2, 3]: 20.022 µmol/mg protein
Relative concentration of DG 36:3 [2, 3]: 2.186 µmol/mg protein
Relative concentration of DG 36:4 [2, 3]: 4.172 µmol/mg protein
Relative concentration of DG 40:4 [2, 3]: 9.158 µmol/mg protein
Relative concentration of LPC 15:0 [2, 3]: 0.094 µmol/mg protein
Relative concentration of LPC 16:0 [2, 3]: 3.165 µmol/mg protein
Relative concentration of LPC 16: e [2, 3]: 0.023 µmol/mg protein
Relative concentration of LPC 18:0 [2, 3]: 1.911 µmol/mg protein
Relative concentration of LPC 18:0e [2, 3]: 0.014 µmol/mg protein
Relative concentration of LPC 18:1 [2, 3]: 1.630 µmol/mg protein
Relative concentration of LPC 18:2 [2, 3]: 0.188 µmol/mg protein
Relative concentration of LPC 20:0 [2, 3]: 0.047 µmol/mg protein
Relative concentration of LPC 20:3 [2, 3]: 0.080 µmol/mg protein
Relative concentration of PC 30:0 [2, 3]: 6.654 µmol/mg protein
Relative concentration of PC 31:0 [2, 3]: 3.243 µmol/mg protein
Relative concentration of PC 32:0 [2, 3]: 20.672 µmol/mg protein
Relative concentration of PC 32:1 [2, 3]: 56.675 µmol/mg protein
Relative concentration of PC 32:1e [2, 3]: 0.780 µmol/mg protein
Relative concentration of PC 32:2 [2, 3]: 7.800 µmol/mg protein
Relative concentration of PC 33:0 [2, 3]: 3.109 µmol/mg protein
Relative concentration of PC 33:1 [2, 3]: 12.338 µmol/mg protein
Relative concentration of PC 33:2 [2, 3]: 1.113 µmol/mg protein
Relative concentration of PC 34:0 [2, 3]: 5.917 µmol/mg protein
Relative concentration of PC 34:1 [2, 3]: 93.696 µmol/mg protein
Relative concentration of PC 34:1e [2, 3]: 0.856 µmol/mg protein
Relative concentration of PC 34:2 [2, 3]: 49.219 µmol/mg protein
Relative concentration of PC 34:2e [2, 3]: 0.709 µmol/mg protein
Relative concentration of PC 34:3 [2, 3]: 5.578 µmol/mg protein
Relative concentration of PC 34:4 [2, 3]: 0.930 µmol/mg protein
Relative concentration of PC 35:1 [2, 3]: 6.392 µmol/mg protein
Relative concentration of PC 35:2 [2, 3]: 6.219 µmol/mg protein
Relative concentration of PC 35:4 [2, 3]: 1.817 µmol/mg protein
Relative concentration of PC 36:0 [2, 3]: 0.209 µmol/mg protein
Relative concentration of PC 36:1 [2, 3]: 24.222 µmol/mg protein
Relative concentration of PC 36:2 [2, 3]: 46.840 µmol/mg protein
Relative concentration of PC 36:2e [2, 3]: 0.101 µmol/mg protein
Relative concentration of PC 36:3 [2, 3]: 20.945 µmol/mg protein
Relative concentration of PC 36:4 [2, 3]: 26.422 µmol/mg protein
Relative concentration of PC 36:5 [2, 3]: 6.790 µmol/mg protein
Relative concentration of PC 36:5e [2, 3]: 0.749 µmol/mg protein
Relative concentration of PC 38:2 [2, 3]: 1.747 µmol/mg protein
Relative concentration of PC 38:3 [2, 3]: 2.875 µmol/mg protein
Relative concentration of PC 38:4 [2, 3]: 12.355 µmol/mg protein
Relative concentration of PC 38:5 [2, 3]: 12.838 µmol/mg protein
Relative concentration of PC 38:5e [2, 3]: 0.193 µmol/mg protein
Relative concentration of PC 38:6 [2, 3]: 9.312 µmol/mg protein
Relative concentration of PC 38:6e [2, 3]: 0.353 µmol/mg protein
Relative concentration of PC 40:4 [2, 3]: 0.298 µmol/mg protein
Relative concentration of PC 40:4e [2, 3]: 0.087 µmol/mg protein
Relative concentration of PC 40:5 [2, 3]: 1.883 µmol/mg protein
Relative concentration of PC 40:6 [2, 3]: 2.981 µmol/mg protein
Relative concentration of PC 42:4e [2, 3]: 0.056 µmol/mg protein
Relative concentration of PC 42:5e [2, 3]: 0.118 µmol/mg protein
Relative concentration of PE 32:0 [2, 3]: 0.231 µmol/mg protein
Relative concentration of PE 36:4 [2, 3]: 15.311 µmol/mg protein
Relative concentration of PE 36:5e [2, 3]: 1.339 µmol/mg protein
Relative concentration of PE 38:5e [2, 3]: 0.649 µmol/mg protein
Relative concentration of SM 32:0 [2, 3]: 0.350 µmol/mg protein
Relative concentration of SM 32:1 [2, 3]: 2.087 µmol/mg protein
Relative concentration of SM 32:2 [2, 3]: 0.032 µmol/mg protein
Relative concentration of SM 33:1 [2, 3]: 1.877 µmol/mg protein
Relative concentration of SM 34:1 [2, 3]: 22.397 µmol/mg protein
Relative concentration of SM 34:2 [2, 3]: 1.973 µmol/mg protein
Relative concentration of SM 35:0 [2, 3]: 1.702 µmol/mg protein
Relative concentration of SM 35:1 [2, 3]: 0.803 µmol/mg protein
Relative concentration of SM 36:0 [2, 3]: 0.297 µmol/mg protein
Relative concentration of SM 36:1 [2, 3]: 1.764 µmol/mg protein
Relative concentration of SM 36:2 [2, 3]: 0.702 µmol/mg protein
Relative concentration of SM 38:1 [2, 3]: 0.595 µmol/mg protein
Relative concentration of SM 38:2 [2, 3]: 0.151 µmol/mg protein
Relative concentration of SM 39:1 [2, 3]: 0.210 µmol/mg protein
Relative concentration of SM 40:0 [2, 3]: 0.286 µmol/mg protein
Relative concentration of SM 40:1 [2, 3]: 1.575 µmol/mg protein
Relative concentration of SM 40:2 [2, 3]: 0.891 µmol/mg protein
Relative concentration of SM 41:1 [2, 3]: 0.637 µmol/mg protein
Relative concentration of SM 41:2 [2, 3]: 0.065 µmol/mg protein
Relative concentration of SM 42:1 [2, 3]: 2.064 µmol/mg protein
Relative concentration of SM 42:2 [2, 3]: 3.149 µmol/mg protein
Relative concentration of SM 42:3 [2, 3]: 0.805 µmol/mg protein
Relative concentration of SM 43:1 [2, 3]: 0.128 µmol/mg protein
Relative concentration of SM 43:2 [2, 3]: 0.358 µmol/mg protein
Relative concentration of TG 46:0 [2, 3]: 1.549 µmol/mg protein
Relative concentration of TG 46:1 [2, 3]: 2.111 µmol/mg protein
Relative concentration of TG 46:2 [2, 3]: 1.025 µmol/mg protein
Relative concentration of TG 48:0 [2, 3]: 2.372 µmol/mg protein
Relative concentration of TG 48:1 [2, 3]: 5.318 µmol/mg protein
Relative concentration of TG 48:2 [2, 3]: 4.451 µmol/mg protein
Relative concentration of TG 48:3 [2, 3]: 1.146 µmol/mg protein
Relative concentration of TG 50:0 [2, 3]: 1.142 µmol/mg protein
Relative concentration of TG 50:1 [2, 3]: 9.399 µmol/mg protein
Relative concentration of TG 50:2 [2, 3]: 11.302 µmol/mg protein
Relative concentration of TG 50:3 [2, 3]: 4.462 µmol/mg protein
Relative concentration of TG 50:4 [2, 3]: 1.054 µmol/mg protein
Relative concentration of TG 51:2 [2, 3]: 2.969 µmol/mg protein
Relative concentration of TG 52:1 [2, 3]: 3.455 µmol/mg protein
Relative concentration of TG 52:2 [2, 3]: 16.188 µmol/mg protein
Relative concentration of TG 52:3 [2, 3]: 12.354 µmol/mg protein
Relative concentration of TG 52:4 [2, 3]: 3.787 µmol/mg protein
Relative concentration of TG 52:5 [2, 3]: 1.312 µmol/mg protein
Relative concentration of TG 52:6 [2, 3]: 0.708 µmol/mg protein
Relative concentration of TG 54:2 [2, 3]: 3.515 µmol/mg protein
Relative concentration of TG 54:3 [2, 3]: 11.096 µmol/mg protein
Relative concentration of TG 54:4 [2, 3]: 6.556 µmol/mg protein
Relative concentration of TG 54:5 [2, 3]: 4.411 µmol/mg protein
